The results in this text go back to ChEMBL document CHEMBL5104161, “Novel analgesic/anti-inflammatory agents: 1,5-Diarylpyrrole nitrooxyethyl sulfides and related compounds as Cyclooxygenase-2 inhibitors containing a nitric oxide donor moiety endowed with vasorelaxant properties” (Eur J Med Chem, 2022).

What all share (type): functional
Assay [1] deals with Rattus norvegicus. As to the kind of experiment: Anti-hyperalgesic activity in carrageenan-induced hyperalgesia male Sprague-Dawley rat model assessed as paw withdrawal threshold at 10 mg/kg, po measured 15 mins after compound administration by paw pressure test. The following applies: 0.25 h.
Assay [2] has as its system Rattus norvegicus. Kind of assay: Anti-hyperalgesic activity in carrageenan-induced hyperalgesia male Sprague-Dawley rat model assessed as paw withdrawal threshold at 10 mg/kg, po measured 30 mins after compound administration by paw pressure test. To be noted: 0.5 h.
In assay [3] the test system is Rattus norvegicus. As to the kind of experiment: Anti-hyperalgesic activity in carrageenan-induced hyperalgesia male Sprague-Dawley rat model assessed as paw withdrawal threshold at 10 mg/kg, po measured 60 mins after compound administration by paw pressure test. To be noted: 1 h.
Assay [4] has as its system Rattus norvegicus. Kind of assay: Anti-hyperalgesic activity in carrageenan-induced hyperalgesia male Sprague-Dawley rat model assessed as paw edema volume at 10 mg/kg, po measured 30 mins after compound administration by plethysmometer analysis. The following applies: 0.5 h.
For assay [5], the system named is Rattus norvegicus. Kind of assay: Anti-hyperalgesic activity in carrageenan-induced hyperalgesia male Sprague-Dawley rat model assessed as paw withdrawal threshold at 10 mg/kg, po measured 45 mins after compound administration by paw pressure test. The following applies: 0.75 h.

As to `Cc1ccc(-c2cc(C(F)(F)F)nn2-c2ccc(S(N)(=O)=O)cc2)cc1` [CELECOXIB], the Activity turned out to be 48.5 g in the assay with Rattus norvegicus [1]; 51.3 g with Rattus norvegicus [2]; 46.7 g in the assay with Rattus norvegicus [3]; 1.56 mL in the assay with Rattus norvegicus [4]; 54 g in the assay on Rattus norvegicus [5].
